No end group written: not given here.
Experiments:
[1] = system: tetanus toxoid (TT); set-up: species or system mice (C57/BL6); conditions: mouse, in vivo
[2] = system: tetanus toxin; set-up: species or system mice (C57/BL6); conditions: mouse, in vivo
[3] = system: TT; set-up: species or system mice (C57/BL6); conditions: mouse, in vivo
[4] = circulating GLP-1; inactivated by N-terminal cleavage by DPP-IV; cited from earlier work
[5] = system: VIP; conditions: in man; cited from earlier work

Substance	anti-TT serum IgA response (GMT) [1]	paralysis after tetanus toxin challenge [2]	survivors after tetanus toxin challenge [2]	range of anti-TT IgG titer [3]	half life [4]	VIP agonist activity [5]
GLP-1 (HDRHAGTTSDVSSYGAAKAWVKGRG; listed as Homo sapiens)	959	no sign of paralysis	8/8	16,384-131,072	several minutes	–
VIP 2-28: Gastrointestinal peptide, residues 2-28 of Vasoactive Intestinal Peptide (SDAVFTDNYTRLRKQMAVKKYLNSILN; ends and bridges not checked; UniProt P01282 126-152, looked up, fragment)	–	–	–	–	–	full VIP agonist

Source: US20080311138A1 (priority 2004, published 2008)
